Source: patent US8697708B2, “Azabenzothiazole compounds, compositions and methods of use” (F. Hoffmann-La Roche AG, priority 2010, dated 2014)
Where a name gives a salt, the structure may show the parent alone.

target: TYK2 (Homo sapiens (Human), UniProt P29597); test: JAK1, JAK2 and TYK2 Inhibition Assay Protocol (Example A): TYK2 kinase domain, Caliper LabChip peptide phosphorylation; format: biochemical; conditions: isolated TYK2 kinase domain, 1 nM enzyme, 25 μM ATP, Morrison tight binding model
Sequence (P29597 897-1176): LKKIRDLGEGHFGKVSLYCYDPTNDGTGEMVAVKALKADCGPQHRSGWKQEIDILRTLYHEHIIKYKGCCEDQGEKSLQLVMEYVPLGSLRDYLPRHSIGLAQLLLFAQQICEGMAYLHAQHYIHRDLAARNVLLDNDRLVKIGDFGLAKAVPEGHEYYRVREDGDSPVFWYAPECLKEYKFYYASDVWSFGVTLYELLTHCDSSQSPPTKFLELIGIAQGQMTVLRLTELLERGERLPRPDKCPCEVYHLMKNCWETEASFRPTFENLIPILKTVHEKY
Method: The activity of the isolated JAK1, JAK2 or TYK2 kinase domain was measured by monitoring phosphorylation of a peptide derived from JAK3 (Val-Ala-Leu-Val-Asp-Gly-Tyr-Phe-Arg-Leu-Thr-Thr) fluorescently labeled on the N-terminus with 5-carboxyfluorescein using the Caliper LabChip technology (Caliper Life Sciences, Hopkinton, Mass.). […] Reactions were incubated at 22° C. in 384-well polypropylene microtiter plates for 30 minutes and then stopped by addition of 25 μL of an EDTA containing solution (100 mM Hepes pH 7.2, 0.015% Brij-35, 150 mM EDTA), resulting in a final EDTA concentration of 50 mM. After termination of the kinase reaction, the proportion of phosphorylated product was determined as a fraction of total peptide substrate using the Caliper LabChip 3000 according to the manufacturer's specifications. Ki values were then determined using the Morrison tight binding model. Morrison, J. F., Biochim. Biophys. Acta. 185:269-296 (1969); William, J. W. and Morrison, J. F., Meth. Enzymol., 63:437-467 (1979).

Row | Ki | SMILES
1 | 0.5 nM | O=C(Nc1nccc2nc(-c3c(Cl)cccc3Cl)sc12)C1CC1 [Example 2, N-(2-(2,6-Dichlorophenyl)thiazolo[5,4-c]pyridin-4-yl)cyclopropanecarboxamide]
2 | 23 nM | O=C(CO)Nc1nccc2nc(-c3c(Cl)cccc3Cl)sc12 [Example 10, N-(2-(2,6-Dichlorophenyl)thiazolo[5,4-c]pyridin-4-yl)-2-hydroxyacetamide]
3 | 1.4 nM | O=C(Nc1nccc2nc(-c3c(F)cccc3Cl)sc12)NC1CC1 [Example 16, 1-(2-(2-Chloro-6-fluorophenyl)thiazolo[5,4-c]pyridin-4-yl)-3-cyclopropylurea]
4 | 6.2 nM | O=C(Nc1ncnc2nc(-c3c(Cl)cccc3Cl)sc12)C1CC1 [Example 24, N-(2-(2,6-dichlorophenyl)thiazolo[4,5-d]pyrimidin-7-yl)cyclopropanecarboxamide]

Further lines, the compound ahead of its results:

Row | SMILES | Ki
5 | OCc1ccnc(Nc2nccc3nc(-c4c(Cl)cccc4Cl)sc23)c1 [Example 18, (2-(2-(2,6-dichlorophenyl)thiazolo[5,4-c]pyridin-4-ylamino)pyridin-4-yl)methanol] | 0.3 nM
6 | Cc1cc(Nc2nccc3nc(-c4c(Cl)cc(CO)cc4Cl)sc23)ncn1 [Example 22, {3,5-Dichloro-4-[4-(6-methyl-pyrimidin-4-ylamino)-thiazolo[5,4-c]pyridin-2-yl]-phenyl}-methanol] | 1 nM
7 | Cc1cc(Nc2nccc3nc(-c4ccccc4Cl)sc23)nc(C)n1 [Example 56, 2-(2-chlorophenyl)-N-(2,6-dimethylpyrimidin-4-yl)thiazolo[5,4-c]pyridin-4-amine] | 8.6 nM
8 | CCc1cc(Nc2nccc3nc(-c4c(Cl)cc(C(N)=O)cc4Cl)sc23)ncn1 [Example 129, 3,5-Dichloro-4-[4-(6-ethylpyrimidin-4-ylamino)thiazolo[5,4-c]pyridin-2-yl]-benzamide] | 1.6 nM
9 | Cc1cc(Nc2nccc3nc(-c4c(Cl)cc(C5CC5)cc4Cl)sc23)ncn1 [Example 138, [2-(2,6-Dichloro-4-cyclopropylphenyl)thiazolo[5,4-c]pyridin-4-yl]-(6-methylpyrimidin-4-yl)-amine] | 4.1 nM
10 | N#Cc1cc(Cl)c(-c2nc3c(F)cnc(NC(=O)C4CC4)c3s2)c(Cl)c1 [Example 213, Cyclopropane-carboxylic acid [2-(2,6-dichloro-4-cyano-phenyl)-7-fluorothiazolo[5,4-c]pyridin-4-yl]-amide] | 1.5 nM
11 | N#Cc1cnc(Nc2cc(N)ncn2)c2sc(-c3c(F)cccc3Cl)nc12 [Example 223, 4-(6-aminopyrimidin-4-ylamino)-2-(2-chloro-6-fluorophenyl) thiazolo[5,4-c] pyridine-7-carbonitrile] | 0.4 nM
12 | N#Cc1cccc(F)c1-c1nc2c(C#N)cnc(Nc3cc(N)ncn3)c2s1 [Example 224, 4-(6-aminopyrimidin-4-ylamino)-2-(2-cyano-6-fluorophenyl) thiazolo[5,4-c] pyridine-7-carbonitrile] | 0.3 nM
13 | Cc1cc(Nc2nccc3nc(-c4c(C#N)cc(C#N)cc4C#N)sc23)nc(C)n1 [Example 227, 2-(4-(2,6-dimethylpyrimidin-4-ylamino)thiazolo[5,4-c]pyridin-2-yl)benzene-1,3,5-tricarbonitrile] | 0.8 nM
14 | Cc1nc(CO)cc(Nc2nccc3nc(-c4c(Cl)cccc4C#N)sc23)n1 [Example 236, 3-Chloro-2-[4-(6-hydroxy-methyl-2-methyl-pyrimidin-4-ylamino)-thiazolo[5,4-c]pyridin-2-yl]-benzonitrile hydrochloride salt] | 0.5 nM
